Source: PubChem BioAssay (NCI)
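All cell lines were grown in 96-well plates and treated with compound for 48 hours. TGI is the concentration that stops growth completely.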

What was measured:
Assay in all cases: NCI-60 cell line screen, 48 h
KM12 colon = tested on: KM12 colon
NCI-H23 lung = tested on: NCI-H23 lung
A549 NSCLC = tested on: A549 NSCLC
LOX IMVI melanoma = tested on: LOX IMVI melanoma
UACC-257 melanoma = tested on: UACC-257 melanoma
IGROV1 ovarian = tested on: IGROV1 ovarian
K-562 leukemia = tested on: K-562 leukemia
SK-MEL-5 melanoma = tested on: SK-MEL-5 melanoma
CAKI-1 renal = tested on: CAKI-1 renal
OVCAR-8 ovarian = tested on: OVCAR-8 ovarian
U251 CNS = tested on: U251 CNS
SW-620 colon = tested on: SW-620 colon
SK-OV-3 ovarian = tested on: SK-OV-3 ovarian
NCI-H226 lung = tested on: NCI-H226 lung
HCT-15 colon = tested on: HCT-15 colon
HOP-92 NSCLC = tested on: HOP-92 NSCLC
MDA-N = tested on: MDA-N
SK-MEL-2 melanoma = tested on: SK-MEL-2 melanoma
A498 renal = tested on: A498 renal
HS 578T breast = tested on: HS 578T breast
MOLT-4 leukemia = tested on: MOLT-4 leukemia
SF-268 CNS = tested on: SF-268 CNS
EKVX NSCLC = tested on: EKVX NSCLC
NCI-H522 lung = tested on: NCI-H522 lung
RXF 393 renal = tested on: RXF 393 renal
MALME-3M melanoma = tested on: MALME-3M melanoma
OVCAR-5 ovarian = tested on: OVCAR-5 ovarian
HCT-116 colon = tested on: HCT-116 colon
MCF7 breast = tested on: MCF7 breast
UACC-62 melanoma = tested on: UACC-62 melanoma
RPMI-8226 leukemia = tested on: RPMI-8226 leukemia
DU-145 prostate = tested on: DU-145 prostate
MDA-MB-435 = tested on: MDA-MB-435
TK-10 renal = tested on: TK-10 renal
HL-60(TB) leukemia = tested on: HL-60(TB) leukemia
OVCAR-3 ovarian = tested on: OVCAR-3 ovarian
BT-549 breast = tested on: BT-549 breast
OVCAR-4 ovarian = tested on: OVCAR-4 ovarian
SF-295 CNS = tested on: SF-295 CNS
COLO 205 colon = tested on: COLO 205 colon
HCC-2998 colon = tested on: HCC-2998 colon
SK-MEL-28 melanoma = tested on: SK-MEL-28 melanoma
UO-31 renal = tested on: UO-31 renal
NCI-H460 lung = tested on: NCI-H460 lung
HOP-62 NSCLC = tested on: HOP-62 NSCLC
786-0 renal = tested on: 786-0 renal
CCRF-CEM leukemia = tested on: CCRF-CEM leukemia
SNB-19 CNS = tested on: SNB-19 CNS
SF-539 CNS = tested on: SF-539 CNS
MDA-MB-231 breast = tested on: MDA-MB-231 breast
ACHN renal = tested on: ACHN renal
T-47D breast = tested on: T-47D breast
M14 melanoma = tested on: M14 melanoma
NCI/ADR-RES ovarian = tested on: NCI/ADR-RES ovarian
SN12C renal = tested on: SN12C renal
HT29 colon = tested on: HT29 colon
PC-3 prostate = tested on: PC-3 prostate
SNB-75 CNS = tested on: SNB-75 CNS

For `c1ccc(C[N+]23CN4CN(CN(C4)C2)C3)cc1`, the TGI (KM12 colon) was > 100 µM, the TGI (NCI-H23 lung) was 36.6 µM and the TGI (A549 NSCLC) was 91.8 µM. For the same compound, the TGI (LOX IMVI melanoma) was 48.2 µM, the TGI (UACC-257 melanoma) was > 100 µM and the TGI (IGROV1 ovarian) was > 100 µM. For the same compound, the TGI (K-562 leukemia) was 86.2 µM, the TGI (SK-MEL-5 melanoma) was 50 µM and the TGI (CAKI-1 renal) was > 100 µM. For the same compound, the TGI (OVCAR-8 ovarian) was 81.8 µM, the TGI (U251 CNS) was 35.6 µM and the TGI (SW-620 colon) was 69.5 µM. The TGI (SK-OV-3 ovarian) was > 100 µM, the TGI (NCI-H226 lung) was > 100 µM and the TGI (HCT-15 colon) was > 100 µM. For the same compound, the TGI (HOP-92 NSCLC) was 70.2 µM, the TGI (MDA-N) was > 100 µM and the TGI (SK-MEL-2 melanoma) was 34.6 µM. For the same compound, the TGI (A498 renal) was > 100 µM, the TGI (HS 578T breast) was > 100 µM and the TGI (MOLT-4 leukemia) was 43.9 µM. For the same compound, the TGI (SF-268 CNS) was 85.8 µM, the TGI (EKVX NSCLC) was > 100 µM and the TGI (NCI-H522 lung) was > 100 µM. For the same compound, the TGI (RXF 393 renal) was 36.8 µM, the TGI (MALME-3M melanoma) was > 100 µM and the TGI (OVCAR-5 ovarian) was > 100 µM. It also gave a TGI (HCT-116 colon) of 85.3 µM, a TGI (MCF7 breast) of 94.3 µM and a TGI (UACC-62 melanoma) of 32.1 µM. For the same compound, the TGI (RPMI-8226 leukemia) was 57.2 µM, the TGI (DU-145 prostate) was 91.8 µM and the TGI (MDA-MB-435) was 45.5 µM. The TGI (TK-10 renal) was > 100 µM, the TGI (HL-60(TB) leukemia) was 57.2 µM and the TGI (OVCAR-3 ovarian) was > 100 µM. The TGI (BT-549 breast) was > 100 µM, the TGI (OVCAR-4 ovarian) was > 100 µM and the TGI (SF-295 CNS) was > 100 µM. The TGI (COLO 205 colon) was 35.8 µM, the TGI (HCC-2998 colon) was 39.9 µM and the TGI (SK-MEL-28 melanoma) was 60.9 µM. The TGI (UO-31 renal) was 43.7 µM, the TGI (NCI-H460 lung) was > 100 µM and the TGI (HOP-62 NSCLC) was > 100 µM. It also gave a TGI (786-0 renal) of 46.8 µM, a TGI (CCRF-CEM leukemia) of 32.9 µM and a TGI (SNB-19 CNS) of 71.2 µM. For the same compound, the TGI (SF-539 CNS) was 51.9 µM, the TGI (MDA-MB-231 breast) was 49.8 µM and the TGI (ACHN renal) was 87.9 µM. The TGI (T-47D breast) was 87.4 µM, the TGI (M14 melanoma) was 39.8 µM and the TGI (NCI/ADR-RES ovarian) was > 100 µM. The TGI (SN12C renal) was > 100 µM, the TGI (HT29 colon) was > 100 µM and the TGI (PC-3 prostate) was 35.7 µM. For the same compound, the TGI (SNB-75 CNS) was > 100 µM.
In the case of `S=c1nc(Cl)cc2[nH]c(Cl)cn12`, the TGI (KM12 colon) is reported as 33.9 µM, the TGI (NCI-H23 lung) is reported as 48.8 µM and the TGI (A549 NSCLC) is reported as > 100 µM. For the same compound, the TGI (LOX IMVI melanoma) was > 100 µM, the TGI (UACC-257 melanoma) was > 100 µM and the TGI (IGROV1 ovarian) was 30.2 µM. For the same compound, the TGI (SK-MEL-5 melanoma) was 17.5 µM, the TGI (CAKI-1 renal) was > 100 µM and the TGI (OVCAR-8 ovarian) was 57.4 µM. The TGI (U251 CNS) was > 100 µM, the TGI (SW-620 colon) was > 100 µM and the TGI (SK-OV-3 ovarian) was 8.4 µM. The TGI (NCI-H226 lung) was > 100 µM, the TGI (HCT-15 colon) was > 100 µM and the TGI (HOP-92 NSCLC) was 96.9 µM. For the same compound, the TGI (MDA-N) was 4.56 µM, the TGI (SK-MEL-2 melanoma) was > 100 µM and the TGI (A498 renal) was 56.9 µM. The TGI (HS 578T breast) was 6.34 µM, the TGI (SF-268 CNS) was > 100 µM and the TGI (EKVX NSCLC) was 7.41 µM. For the same compound, the TGI (NCI-H522 lung) was 6.22 µM, the TGI (RXF 393 renal) was > 100 µM and the TGI (MALME-3M melanoma) was > 100 µM. For the same compound, the TGI (HCT-116 colon) was 16.6 µM, the TGI (MCF7 breast) was 19.3 µM and the TGI (UACC-62 melanoma) was > 100 µM. For the same compound, the TGI (RPMI-8226 leukemia) was 43.3 µM, the TGI (DU-145 prostate) was > 100 µM and the TGI (MDA-MB-435) was 4.74 µM. For the same compound, the TGI (TK-10 renal) was > 100 µM, the TGI (OVCAR-3 ovarian) was 6.49 µM and the TGI (BT-549 breast) was > 100 µM. It also gave a TGI (OVCAR-4 ovarian) of 44.9 µM, a TGI (SF-295 CNS) of 14.4 µM and a TGI (COLO 205 colon) of 8.08 µM. For the same compound, the TGI (HCC-2998 colon) was > 100 µM, the TGI (SK-MEL-28 melanoma) was > 100 µM and the TGI (UO-31 renal) was > 100 µM. The TGI (NCI-H460 lung) was > 100 µM, the TGI (HOP-62 NSCLC) was > 100 µM and the TGI (786-0 renal) was > 100 µM. For the same compound, the TGI (CCRF-CEM leukemia) was 6.04 µM, the TGI (SNB-19 CNS) was > 100 µM and the TGI (SF-539 CNS) was 5.69 µM. The TGI (MDA-MB-231 breast) was 43.9 µM, the TGI (ACHN renal) was > 100 µM and the TGI (T-47D breast) was > 100 µM. For the same compound, the TGI (M14 melanoma) was > 100 µM, the TGI (NCI/ADR-RES ovarian) was 6.89 µM and the TGI (SN12C renal) was > 100 µM. The TGI (HT29 colon) was 75.3 µM, the TGI (PC-3 prostate) was > 100 µM and the TGI (SNB-75 CNS) was 13.8 µM.
